Test results as given in ChEMBL document CHEMBL1201862, “PubChem BioAssay data set” (2004).
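48-hour exposure; five concentrations; linearly interpolated endpoints. At the GI50, growth is halved.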 Calls of active or inactive are those of the source. Rule as the data show it: active = GI50 up to about 1.1 µM and inactive = higher.

Columns and labels:
Test in all cases: growth of human tumour cells (NCI), 48 h
HT-29 = system: HT-29
TK-10 = system: TK-10
KM12 = system: KM12
OVCAR-8 = system: OVCAR-8
SN12C = system: SN12C
UO-31 = system: UO-31
HCT-15 = system: HCT-15
HL-60 = system: HL-60
OVCAR-3 = system: OVCAR-3
SF-539 = system: SF-539
UACC-257 = system: UACC-257
SNB-19 = system: SNB-19
K562 = system: K562
SW-620 = system: SW-620
CCRF-CEM = system: CCRF-CEM
HCT-116 = system: HCT-116
A549 = system: A549
A498 = system: A498
EKVX = system: EKVX
LXFL 529 = system: LXFL 529
NCI-H226 = system: NCI-H226
SK-MEL-28 = system: SK-MEL-28
OVCAR-4 = system: OVCAR-4
M19-MEL = system: M19-MEL
RPMI-8226 = system: RPMI-8226
KM-20L2 = system: KM-20L2
SK-OV-3 = system: SK-OV-3
DMS-273 = system: DMS-273
OVCAR-5 = system: OVCAR-5
SF-268 = system: SF-268
ACHN = system: ACHN
M14 = system: M14
HOP-62 = system: HOP-62
MOLT-4 = system: MOLT-4
SNB-78 = system: SNB-78
IGROV-1 = system: IGROV-1
SK-MEL-5 = system: SK-MEL-5
COLO 205 = system: COLO 205
786-0 = system: 786-0
SNB-75 = system: SNB-75
NCI-H460 = system: NCI-H460
HOP-92 = system: HOP-92
NCI-H23 = system: NCI-H23
HOP-18 = system: HOP-18
CAKI-1 = system: CAKI-1
Malme-3M = system: Malme-3M
HCC 2998 = system: HCC 2998
SF-295 = system: SF-295
UACC-62 = system: UACC-62
NCI-H522 = system: NCI-H522
U-251 = system: U-251
DLD-1 = system: DLD-1
DMS-114 = system: DMS-114
MCF7 = system: MCF7
MDA-N = system: MDA-N
RXF 393 = system: RXF 393
MDA-MB-231 = system: MDA-MB-231
SR = system: SR
PC-3 = system: PC-3
NCI/ADR-RES = system: NCI/ADR-RES
BT-549 = system: BT-549
LOX IMVI = system: LOX IMVI
DU-145 = system: DU-145
Hs-578T = system: Hs-578T
SK-MEL-2 = system: SK-MEL-2
MDA-MB-435 = system: MDA-MB-435
T47D = system: T47D

In the case of `Cc1ccc(C(=O)/C=C/c2ccccc2Cl)cc1`, the GI50 (HT-29) is reported as 15.8 µM (inactive), the GI50 (TK-10) is reported as 21.1 µM (inactive) and the GI50 (KM12) is reported as 15.7 µM (inactive). For the same compound, the GI50 (OVCAR-8) was 15.8 µM (inactive), the GI50 (SN12C) was 20.6 µM (inactive) and the GI50 (UO-31) was 18.6 µM (inactive). For the same compound, the GI50 (HCT-15) was 15 µM, the GI50 (HL-60) was 16.4 µM (inactive) and the GI50 (OVCAR-3) was 17.3 µM (inactive). For the same compound, the GI50 (SF-539) was 21.2 µM (inactive), the GI50 (UACC-257) was 15.4 µM (inactive) and the GI50 (SNB-19) was 18.4 µM (inactive). For the same compound, the GI50 (K562) was 19.7 µM (inactive), the GI50 (SW-620) was 13.6 µM (inactive) and the GI50 (CCRF-CEM) was 18.8 µM (inactive). The GI50 (HCT-116) was 11.8 µM (inactive), the GI50 (A549) was 33.7 µM (inactive) and the GI50 (A498) was 25.4 µM (inactive). The GI50 (EKVX) was 19.2 µM (inactive), the GI50 (LXFL 529) was 15.3 µM (inactive) and the GI50 (NCI-H226) was 25.1 µM (inactive). For the same compound, the GI50 (SK-MEL-28) was 14.2 µM (inactive), the GI50 (OVCAR-4) was 17.1 µM (inactive) and the GI50 (M19-MEL) was 18.8 µM (inactive). The GI50 (RPMI-8226) was 15.8 µM (inactive), the GI50 (KM-20L2) was 16.7 µM (inactive) and the GI50 (SK-OV-3) was 39.4 µM (inactive). For the same compound, the GI50 (DMS-273) was 15.2 µM (inactive), the GI50 (OVCAR-5) was 17.1 µM (inactive) and the GI50 (SF-268) was 20.5 µM (inactive). For the same compound, the GI50 (ACHN) was 15.9 µM (inactive), the GI50 (M14) was 17.6 µM (inactive) and the GI50 (HOP-62) was 68.5 µM (inactive). For the same compound, the GI50 (MOLT-4) was 19.6 µM (inactive), the GI50 (SNB-78) was 21.7 µM (inactive) and the GI50 (IGROV-1) was 18.4 µM (inactive). For the same compound, the GI50 (SK-MEL-5) was 20.9 µM (inactive), the GI50 (COLO 205) was 24.2 µM (inactive) and the GI50 (786-0) was 16.2 µM (inactive). For the same compound, the GI50 (SNB-75) was 19.1 µM (inactive), the GI50 (NCI-H460) was 14.9 µM (inactive) and the GI50 (HOP-92) was 30.1 µM (inactive). The GI50 (NCI-H23) was 19 µM (inactive), the GI50 (HOP-18) was 26.8 µM (inactive) and the GI50 (CAKI-1) was 16.8 µM (inactive). For the same compound, the GI50 (Malme-3M) was 23.5 µM (inactive), the GI50 (HCC 2998) was 18.5 µM (inactive) and the GI50 (SF-295) was 19.2 µM (inactive). For the same compound, the GI50 (UACC-62) was 14.3 µM (inactive), the GI50 (NCI-H522) was 14 µM (inactive) and the GI50 (U-251) was 14.7 µM (inactive). For the same compound, the GI50 (DLD-1) was 19.8 µM (inactive) and the GI50 (DMS-114) was 18.3 µM (inactive).

With `Cc1cc(C)c2c(O)cc(-c3cccc4ccccc34)nc2n1` the GI50 (HT-29) was 0.363 µM (active), the GI50 (TK-10) was > 32.4 µM (inactive) and the GI50 (KM12) was 0.406 µM (active). The GI50 (OVCAR-8) was 1.14 µM (inactive), the GI50 (SN12C) was 2.78 µM (inactive) and the GI50 (UO-31) was 3.09 µM (inactive). The GI50 (HCT-15) was 0.468 µM, the GI50 (MCF7) was 0.719 µM (active) and the GI50 (HL-60) was 0.26 µM (active). The GI50 (OVCAR-3) was 0.263 µM (active), the GI50 (SF-539) was 0.703 µM (active) and the GI50 (UACC-257) was 0.238 µM (active). The GI50 (SNB-19) was 1.12 µM (inactive), the GI50 (K562) was 0.386 µM (active) and the GI50 (SW-620) was 0.448 µM (active). The GI50 (CCRF-CEM) was 0.719 µM (active), the GI50 (HCT-116) was 0.403 µM (active) and the GI50 (A549) was 0.867 µM (active). For the same compound, the GI50 (A498) was 0.474 µM (active), the GI50 (EKVX) was 0.975 µM (active) and the GI50 (NCI-H226) was 1.44 µM (inactive). For the same compound, the GI50 (MDA-N) was 0.218 µM (active), the GI50 (SK-MEL-28) was 10.8 µM (inactive) and the GI50 (OVCAR-4) was 4.25 µM (inactive). For the same compound, the GI50 (RPMI-8226) was 0.671 µM (active), the GI50 (SK-OV-3) was 0.462 µM (active) and the GI50 (OVCAR-5) was 2.29 µM (inactive). For the same compound, the GI50 (SF-268) was 2.58 µM (inactive), the GI50 (ACHN) was 0.594 µM (active) and the GI50 (M14) was 0.745 µM (active). For the same compound, the GI50 (HOP-62) was 10 µM (inactive), the GI50 (RXF 393) was 0.746 µM (active) and the GI50 (MOLT-4) was 0.863 µM (active). The GI50 (IGROV-1) was 1.49 µM (inactive), the GI50 (SK-MEL-5) was 0.381 µM (active) and the GI50 (MDA-MB-231) was 2.22 µM (inactive). For the same compound, the GI50 (COLO 205) was 0.41 µM (active), the GI50 (786-0) was 0.612 µM (active) and the GI50 (SR) was 0.342 µM (active). For the same compound, the GI50 (SNB-75) was 0.317 µM (active), the GI50 (NCI-H460) was 0.653 µM (active) and the GI50 (HOP-92) was 0.361 µM (active). For the same compound, the GI50 (NCI-H23) was 2.13 µM (inactive), the GI50 (PC-3) was 0.641 µM (active) and the GI50 (CAKI-1) was 2.07 µM (inactive). For the same compound, the GI50 (Malme-3M) was 0.28 µM (active), the GI50 (NCI/ADR-RES) was 0.52 µM (active) and the GI50 (BT-549) was 3.3 µM (inactive). The GI50 (HCC 2998) was 1.14 µM (inactive), the GI50 (LOX IMVI) was 0.628 µM (active) and the GI50 (SF-295) was 0.615 µM (active). For the same compound, the GI50 (UACC-62) was 0.349 µM (active), the GI50 (DU-145) was 2.71 µM (inactive) and the GI50 (NCI-H522) was 0.373 µM (active). The GI50 (U-251) was 0.426 µM (active), the GI50 (Hs-578T) was 1.09 µM (active) and the GI50 (SK-MEL-2) was 0.291 µM (active). For the same compound, the GI50 (MDA-MB-435) was 0.172 µM (active) and the GI50 (T47D) was 24.4 µM (inactive).
